Assay results: patent US9132130B2, “Purine derivative and antitumor agent using same” (ZENYAKU KOGYO KABUSHIKI KAISHA, priority 2009, dated 2015)

Experiments:
Assay type in all cases: cell-based
[1] = test system: PC-3 cells (human prostate cancer cells); test: in vitro antitumor activity test, PC-3 cells, XTT colorimetry; conditions: PC-3 human prostate cancer cells, cultured 72 hours
Procedure: (§1) WiDr cells (human colon cancer cells) subcultured in a culture medium composed of a MEM medium added with 10% fetal bovine serum, 25 mM HEPES and 0.1 mg/ml kanamycin under the conditions of 37° C. and 5% carbon dioxide gas were made into single floating cells by treating with trypsin/EDTA, and a single cell suspension of 3×10^4 cells per 1 ml was prepared using the MEM medium (added with 10% fetal bovine serum, 25 mM HEPES and 0.1 mg/ml kanamycin). After dissolving the test compounds in DMSO, they were diluted in a RPMI 1640 medium (added with 10% fetal bovine serum, 25 mM HEPES and 0.1 mg/ml kanamycin) and prepared so that the concentrations were 2.0×10^−9 to 2.0×10^−4 M.
(§2) 0.1 ml of the cell suspension was placed into each well of 96-well microplates, cultured for 24 hours to allow the cells to adhere to the microplates, then 0.1 ml of the sample solutions were added, and cultured for 72 hours at 37° C. in 5% carbon dioxide gas.
(§3) Afterwards, the level of growth inhibition at various sample concentrations was obtained using XTT colorimetry, and concentrations at which growth was inhibited by 50% (GI50 values [μM]) were calculated.
(§4) In addition, cells other than WiDr cells that were used, and the condition for preparing each single cell suspension were as follows.
PC-3 cells (human prostate cancer cells): 2×10^4 cells/ml

[2] = test system: P388 cells (mouse leukemia cells); test: in vitro antitumor activity test, P388 cells, XTT colorimetry; conditions: cultured 72 hours
Procedure: P388 cells (mouse leukemia cells) passaged in the abdominal cavity of DBA/2 mice were extracted with ascitic fluid, and cultured in a RPMI 1640 medium (added with 10% fetal bovine serum, 25 mM HEPES, 0.1 mg/ml kanamycin and 5 μM 2-hydroxyethyldisulfide) at 37° C. in 5% carbon dioxide gas. After culturing for 16 hours, floating P388 cells were made into a single cell suspension of 4×10^4 cells per 1 ml using the same RPMI 1640 medium as given above. The test substances were dissolved in DMSO, then diluted in a RPMI 1640 medium (added with 10% fetal bovine serum, 25 mM HEPES and 0.1 mg/ml kanamycin) and prepared so that the concentrations were 2.0×10^−9 to 2.0×10^−4 M.
0.1 ml of the cell suspension was placed into each well of 96-well microplates, then 0.1 ml of the sample solutions were added, and cultured for 72 hours at 37° C. in 5% carbon dioxide gas.
as §3

[3] = test system: B16F10 cells (mouse melanoma [malignant melanoma] cells); test: in vitro antitumor activity test, B16F10 cells, XTT colorimetry; conditions: B16-F10, cultured 72 hours
Procedure: as §1, §2, §3, §4
B16F10 cells (mouse melanoma [malignant melanoma] cells): 1×10^4 cells/ml

[4] = test system: WiDr cells (human colon cancer cells); test: in vitro antitumor activity test, WiDr cells, XTT colorimetry; conditions: cultured 72 hours
Procedure: as §1, §2, §3

[5] = test system: A549 cells (human lung cancer cells); test: in vitro antitumor activity test, A549 cells, XTT colorimetry; conditions: cultured 72 hours
Procedure: as §1, §2, §3, §4
A549 cells (human lung cancer cells): 2×10^4 cells/ml

CCc1nc2c(N3CCOCC3)nc(SCc3ccc(OC)c(F)c3)nc2n1C [Compound 14, 8-ethyl-2-(3-fluoro-4-methoxybenzylsulfanyl)-9-methyl-6-morpholino-9H-purine]
GI50 [1]: 160 nM | GI50 [2]: 200 nM | GI50 [3]: 340 nM | GI50 [4]: 260 nM | GI50 [5]: 120 nM

COc1ccc(CSc2nc(N3C=COCC3)c3ncn(C)c3n2)cc1N [Compound 150, 2-(3-amino-4-methoxybenzylsulfanyl)-6-(2,3,-dihydro-[1,4]oxadin-4-yl)-9-methyl-9H-purine]
GI50 [1]: 150 nM | GI50 [2]: 110 nM | GI50 [3]: 300 nM | GI50 [4]: 780 nM | GI50 [5]: 150 nM

CCc1nc2c(N3CCOCC3)nc(SCc3ccc(OC)cc3OCc3ccccc3)nc2n1C [Compound 15, 2-(2-benzyloxy-4-methoxybenzylsulfanyl)-8-ethyl-9-methyl-6-morpholino-9H-purine]
GI50 [1]: 820 nM | GI50 [2]: 870 nM | GI50 [3]: 1800 nM | GI50 [4]: 1160 nM | GI50 [5]: 2280 nM

CCc1nc2c(N3CCOCC3)nc(SCc3ccc(OC)c(NC(=O)c4ccco4)c3)nc2n1C [Compound 55, 8-ethyl-2-[3-(2-furylcarbonylamino)-4-methoxybenzylsulfanyl]-9-methyl-6-morpholino-9H-purine]
GI50 [1]: 780 nM | GI50 [2]: 1050 nM | GI50 [3]: 1390 nM | GI50 [4]: 1390 nM | GI50 [5]: 1340 nM

CCc1nc2c(N3CCN(N=O)CC3)nc(SCc3ccc(OC)c(F)c3)nc2n1C [Compound 20, 8-ethyl-2-(3-fluoro-4-methoxybenzylsulfanyl)-9-methyl-6-(4-nitrosopiperazin-1-yl)-9H-purine]
GI50 [1]: 40 nM | GI50 [2]: 80 nM | GI50 [3]: 320 nM | GI50 [4]: 80 nM | GI50 [5]: 160 nM

COc1ccc(CSc2nc(N3CCOCC3)c3ncn(C)c3n2)cc1 [Compound 9, 2-(4-methoxybenzylsulfanyl)-9-methyl-6-morpholino-9H-purine]
GI50 [1]: 380 nM | GI50 [2]: 300 nM | GI50 [3]: 1170 nM | GI50 [4]: 400 nM | GI50 [5]: 570 nM

CCc1nc2c(N(C)C)nc(SCc3ccc(OC)c(N)c3)nc2n1C [Compound 23, 2-(3-amino-4-methoxybenzylsulfanyl)-6-dimethylamino-8-ethyl-9-methyl-9H-purine]
GI50 [1]: 130 nM | GI50 [2]: 230 nM | GI50 [3]: 500 nM | GI50 [4]: 440 nM | GI50 [5]: 250 nM

C=Cc1nc(SCc2ccc(OC)cc2)nc2c1ncn2C [Compound 165, 2-(4-methoxybenzylsulfanyl)-9-methyl-6-vinyl-9H-purine]
GI50 [1]: 3200 nM | GI50 [2]: 260 nM | GI50 [3]: 980 nM | GI50 [4]: 4100 nM | GI50 [5]: 3300 nM

C=Cc1cc(CSc2nc(N3CCOCC3)c3nc(CC)n(C)c3n2)ccc1OC [Compound 79, 8-ethyl-2-(4-methoxy-3-vinylbenzylsulfanyl)-9-methyl-6-morpholino-9H-purine]
GI50 [1]: 440 nM | GI50 [2]: 1000 nM | GI50 [3]: 1500 nM | GI50 [4]: 1300 nM | GI50 [5]: 1400 nM

CNc1nc(SCc2ccc(OC)cc2)nc2c1ncn2C [Compound 26, 2-(4-methoxybenzylsulfanyl)-9-methyl-6-methylamino-9H-purine]
GI50 [1]: 110 nM | GI50 [2]: 70 nM | GI50 [3]: 340 nM | GI50 [4]: 80 nM | GI50 [5]: 110 nM

C=Cc1ccc(CSc2nc(N3CCOCC3)c3nc(CC)n(C)c3n2)cc1 [Compound 10, 8-ethyl-9-methyl-6-morpholino-2-(4-vinylbenzylsulfanyl)-9H-purine]
GI50 [1]: 890 nM | GI50 [2]: 1280 nM | GI50 [3]: 1820 nM | GI50 [4]: 1250 nM | GI50 [5]: 1690 nM

CN(C)c1nc(SCc2ccccc2)nc2[nH]cnc12 [Compound C, reference compound]
GI50 [1]: > 10000 nM | GI50 [2]: > 10000 nM | GI50 [3]: > 10000 nM | GI50 [4]: > 10000 nM | GI50 [5]: > 10000 nM

COc1ccc(CSc2nc(N3C=COCC3)c3ncn(C)c3n2)cc1F [Compound 152, 6-(2,3-dihydro-[1,4]oxadin-4-yl)-2-(3-fluoro-4-methoxybenzylsulfanyl)-9-methyl-9H-purine]
GI50 [1]: < 40 nM | GI50 [2]: < 40 nM | GI50 [3]: < 40 nM | GI50 [4]: < 40 nM | GI50 [5]: < 40 nM

CCc1nc2c(N(C)C)nc(SCc3ccc(OC)cc3)nc2n1C [Compound 24, 6-dimethylamino-8-ethyl-2-(4-methoxybenzylsulfanyl)-9-methyl-9H-purine]
GI50 [1]: 260 nM | GI50 [2]: 200 nM | GI50 [3]: 440 nM | GI50 [4]: 210 nM | GI50 [5]: 320 nM

COc1ccc(CSc2nc(-c3cn[nH]c3)c3ncn(C)c3n2)cc1 [Compound 170, 2-(4-methoxybenzylsulfanyl)-9-methyl-6-(pyrazol-4-yl)-9H-purine]
GI50 [1]: 50 nM | GI50 [2]: < 40 nM | GI50 [3]: 70 nM | GI50 [4]: < 40 nM | GI50 [5]: < 40 nM

COc1ccc(CSc2nc(N(C)C)c3ncn(C)c3n2)cc1F [Compound 86, 6-dimethylamino-2-(3-fluoro-4-methoxybenzylsulfanyl)-9-methyl-9H-purine]
GI50 [1]: 50 nM | GI50 [2]: 30 nM | GI50 [3]: 60 nM | GI50 [4]: 40 nM | GI50 [5]: 50 nM

CCc1nc2c(N(C)C)nc(SCc3ccc(OC)c(NC(C)=O)c3)nc2n1C [Compound 60, 2-(3-acetylamino-4-methoxybenzylsulfanyl)-6-dimethylamino-8-ethyl-9-methyl-9H-purine]
GI50 [1]: 870 nM | GI50 [2]: 610 nM | GI50 [3]: 1000 nM | GI50 [4]: 1300 nM | GI50 [5]: 1400 nM

CCN(C)c1nc(SCc2ccc(OC)c(C#N)c2)nc2c1ncn2C [Compound 85, 2-(3-cyano-4-methoxybenzylsulfanyl)-6-(N-ethyl-N-methylamino)-9-methyl-9H-purine]
GI50 [1]: 120 nM | GI50 [2]: 70 nM | GI50 [3]: 120 nM | GI50 [4]: 80 nM | GI50 [5]: 140 nM

CCc1nc2c(N(C)C)nc(SCc3ccc(OC)c(C#N)c3)nc2n1C [Compound 69, 2-(3-cyano-4-methoxybenzylsulfanyl)-6-dimethylamino-8-ethyl-9-methyl-9H-purine]
GI50 [1]: 120 nM | GI50 [2]: 110 nM | GI50 [3]: 200 nM | GI50 [4]: 150 nM | GI50 [5]: 150 nM

COc1ccc(CSc2nc(N3C=COCC3)c3ncn(C)c3n2)cc1C#N [Compound 153, 2-(3-cyano-4-methoxybenzylsulfanyl)-6-(2,3-dihydro-[1,4]oxadin-4-yl)-9-methyl-9H-purine]
GI50 [1]: < 40 nM | GI50 [2]: < 40 nM | GI50 [3]: < 40 nM | GI50 [4]: < 40 nM | GI50 [5]: < 40 nM

CNc1nc(SCc2ccc(OC)c(F)c2)nc2c1ncn2C [Compound 73, 2-(3-fluoro-4-methoxybenzylsulfanyl)-6-methylamino-9-methyl-9H-purine]
GI50 [1]: < 40 nM | GI50 [2]: < 40 nM | GI50 [3]: < 40 nM | GI50 [4]: < 40 nM | GI50 [5]: < 40 nM

CCc1nc2c(N3CCOCC3)nc(SCc3ccc(OC)c(Br)c3)nc2n1C [Compound 78, 2-(3-bromo-4-methoxybenzylsulfanyl)-8-ethyl-9-methyl-6-morpholino-9H-purine]
GI50 [1]: 360 nM | GI50 [2]: 910 nM | GI50 [3]: 1200 nM | GI50 [4]: 1100 nM | GI50 [5]: 1100 nM

CCNc1nc(SCc2ccc(OC)c(F)c2)nc2c1ncn2C [Compound 91, 6-ethylamino-2-(3-fluoro-4-methoxybenzylsulfanyl)-9-methyl-9H-purine]
GI50 [1]: 340 nM | GI50 [2]: 90 nM | GI50 [3]: 140 nM | GI50 [4]: 90 nM | GI50 [5]: 140 nM
